Laboratory results as given in patent US20240334932A1, “POLYMORPHS HAVING PESTICIDAL ACTIVITY” (CORTEVA AGRISCIENCE LLC, priority 2021, published 2024).

Assays:
[1] = Dissolution in hexane (anti-solvent); format: physicochemical
[2] = system: adult sweet potato whitefly, B. tabaci; test: Knock-down study, treated glass vial bioassay, hexane anti-solvent experiment (Example 13B); format: in vivo; conditions: for Effect on B. tabaci behavior compared with the amorphous oil: hexane; for Trt Least Squares Means (proportion scale) Mean: proportion of insects above the 2 cm line: hexane anti-solvent suspension, repeated measures 15-180 min, GLMM
Procedure: In this study, the effect of Compound 1 on the behavior of adult sweet potato whitefly, B. tabaci was evaluated. In general, different forms of Compound 1 (either inventive Polymorph form A, inventive Polymorph form B, or non-crystalline Compound 1, amorphous oil) were applied to the inside of glass vials and adult B. tabaci were transferred into treated vials, exposing them to Compound 1 via contact with the treated glass surface. To quantify the knock-down effect reported previously (Lee et. al. 2013), a line was scribed 2 cm above the bottom of the treated vials and the number of B. tabaci above the 2 cm line were recorded the first three hours following initial exposure. […] This study characterized the effect of Compound 1, Polymorph A and Compound 1, Polymorph B on adult B. tabaci whitefly behavior using a common treated glass vial bioassay to expose the test insects through direct contact (Busvine 1971), and compared those effects in direct head-to-head comparison with non-cystalline Compound 1. Test compounds were either dissolved in acetone (Example 11A) or suspended in a volatile anti-solvent (hexane) (Example 11B), and then evenly coated on the inside of a glass vial using a laboratory-roller. In this experiment, three forms of Compound 1 (Polymorph form A, Polymorph form B, and non-crystalline, amorphous oil) were evaluated for their effect on B. tabaci behavior, polymorph A, polymorph B and an amorphous oil. The samples of Polymorph form A and Polymorph form B were finely milled as described in Example 12. The experimental design of the hexane experiment, including rates (25, 2.5, and 0.25 g/ha), replication (three replications per treatment), and preparation of the treatment suspension was similar to the process described for Example 13A. However, hexane was used instead of acetone. […] Following sonication, samples were again mixed using a vortex mixer immediately before transferring 151 μl of each stock suspension to 11.85 mL of hexane to create the treatment suspension for the 25 g/ha rate (resulting in 0.25 μg/cm^2). The 25 g/ha treatment suspension was serially diluted ten-fold, two times to generate treatment suspensions for the 2.5 and 0.25 g/ha rates. 3 mL of each treatment suspension was transferred into the 11-dram vials and the vials were placed on a laboratory tube roller and rotated at room temperature until the hexane had fully evaporated, leaving an even coating of Compound 1 particles on the inside of the vials. The solvent blank vials were treated with 3 mL of hexane. Following treatment, the vials were stored, infested with approximately 117.4, 47-219 (Mean, min-max) adult B. tabaci, and evaluated as described in the acetone experiment. For each trial and rate, the proportion of insects above the 2 cm line was analyzed with a generalized linear mixed model (GLMM) for repeated measures with binomial response and logit link function (Stroup, 2012). The use of the generalized linear model with binomial distribution for the response, instead of the linear model with normal distribution (ANOVA), allows the correct use of the distributional assumptions and actual sample size (number of insects) used in the experiments. The model included Treatment, Time point, and the interaction Treatment x Time point as fixed effects and the replicate (experimental unit) as random effect. The correlation between repeated measures was modeled with the compound symmetry covariance matrix. The generalized linear mixed models were estimated with the residual pseudo-likelihood method, and the means of the treatment proportions were compared with Tukey's tests (α=0.05) (Stroup 2012). Statistical analyses were performed with SAS Proc GLIMMIX (SAS Software, Version 9.4, SAS Institute Inc., Cary, NC).

[3] = Air milling of polymorphs, PXRD before and after (Example 12); format: physicochemical; conditions: Jet Mill to d(0.5)<6 μm and d(0.9)<15 μm
Procedure: Compound 1, Polymorph A and Compound 1, Polymorph B samples were air milled separately with Jet Mill until particle size of d (0.5)<6 μm and d (0.9)<15 μm. Powder X-Ray Diffraction (PXRD) was conducted on the samples before and after the air milling process.

[4] = system: adult sweet potato whitefly, B. tabaci; test: Knock-down study, treated glass vial bioassay, acetone experiment (Example 13A); format: in vivo, B. tabaci (Middle East Asia Minor1 (MEAM1) biotype); conditions: for Effect on B. tabaci behavior compared with the amorphous oil: acetone; for Trt Least Squares Means (proportion scale) Mean: proportion of insects above the 2 cm line: applied from acetone, repeated measures 15-180 min, GLMM
Procedure: In this study, the effect of Compound 1 on the behavior of adult sweet potato whitefly, B. tabaci was evaluated. In general, different forms of Compound 1 (either inventive Polymorph form A, inventive Polymorph form B, or non-crystalline Compound 1, amorphous oil) were applied to the inside of glass vials and adult B. tabaci were transferred into treated vials, exposing them to Compound 1 via contact with the treated glass surface. To quantify the knock-down effect reported previously (Lee et. al. 2013), a line was scribed 2 cm above the bottom of the treated vials and the number of B. tabaci above the 2 cm line were recorded the first three hours following initial exposure.
This study characterized the effect of Compound 1, Polymorph A and Compound 1, Polymorph B on adult B. tabaci whitefly behavior using a common treated glass vial bioassay to expose the test insects through direct contact (Busvine 1971), and compared those effects in direct head-to-head comparison with non-cystalline Compound 1. Test compounds were either dissolved in acetone (Example 11A) or suspended in a volatile anti-solvent (hexane) (Example 11B), and then evenly coated on the inside of a glass vial using a laboratory-roller.
In this experiment, two forms of Compound 1 (polymorph form B and an amorphous oil) were evaluated for their effect on B. tabaci behavior. Three application rates were evaluated for each form of Compound 1 (25 g/ha, 2.5 g/ha,and 0.25 g/ha), in addition to a solvent blank control. Each treatment and the control were replicated three times. Compound 1 samples were dissolved in acetone and were coated on the inside of a 11-dram screw-top glass vial (Fisherbrand 03-339-21N) (Fisher Scientific, Hampton, NH). […] To treat the vials, a stock solution of each sample was first prepared by dissolving 1 mg of Compound 1 sample (either polymorph form B or an amorphous oil) in 2 ml of acetone. The stock solution was agitated using a laboratory vortex mixer to ensure complete mixture of the solution. 151 μL of each stock solution was added to 11.85 mL of acetone to create the treatment solution for the 25 g/ha rate (resulting in 0.25 μg/cm^2). The 25 g/ha treatment solution was serially diluted ten-fold, two times to generate treatment solutions for the 2.5 and 0.25 g/ha rates. 3 mL of each treatment solution was transferred into the 11-dram vials and the vials were placed on a laboratory tube roller and rotated at room temperature until the acetone had fully evaporated, leaving a coating of Compound 1 on the inside of the vials. The solvent blank vials were treated with 3 mL of acetone. After treatment, the vials were left open in a fume hood overnight at room temperature in preparation for testing the following day. Mixed-sex adult B. tabaci whiteflies (Middle East Asia Minor1 (MEAM1) biotype) were collected from a susceptible colony maintained at Corteva Agriscience (Indianapolis, IN). The adult B. tabaci were anesthetized with CO2 and approximately 66.5, 32-102 (Mean, min-max) were introduced into each of the treated vials and their behavior recorded. To evaluate B. tabaci behavior, a line was scribed 2 cm above the bottom of the vial and the number of individuals above the line were recorded at 15, 30, 45, 60, 90, 120, 150, and 180 min after introduction. Following completion of the experiment, the insects were devitalized by freezing at −30° C. for 72 h after which the total number of insects in each vial was recorded. The percentage of B. tabaci above the 2 cm line was calculated for each rate and was used to graph the effect of Compound 1 on whiteflies over time.
For each trial and rate, the proportion of insects above the 2 cm line was analyzed with a generalized linear mixed model (GLMM) for repeated measures with binomial response and logit link function (Stroup, 2012). […]

Compound	Solubility in hexane [1]	Effect on B. tabaci behavior compared with the amorphous oil ([2]; 0.25 g/ha)	Trt Least Squares Means (proportion scale) Mean: proportion of insects above the 2 cm line ([2]; 0.25 g/ha)	Effect on B. tabaci behavior compared with the amorphous oil ([2]; 2.5 g/ha)	Trt Least Squares Means (proportion scale) Mean: proportion of insects above the 2 cm line ([2]; 2.5 g/ha)	Effect on B. tabaci behavior compared with the amorphous oil ([2]; 25 g/ha)	Trt Least Squares Means (proportion scale) Mean: proportion of insects above the 2 cm line ([2]; 25 g/ha)	Polymorphic form after the air milling process (PXRD) [3]	Effect on B. tabaci behavior compared with the amorphous oil ([4]; 0.25 g/ha)	Trt Least Squares Means (proportion scale) Mean: proportion of insects above the 2 cm line ([4]; 0.25 g/ha)	Effect on B. tabaci behavior compared with the amorphous oil ([4]; 2.5 g/ha)	Trt Least Squares Means (proportion scale) Mean: proportion of insects above the 2 cm line ([4]; 2.5 g/ha)	Effect on B. tabaci behavior compared with the amorphous oil ([4]; 25 g/ha)	Trt Least Squares Means (proportion scale) Mean: proportion of insects above the 2 cm line ([4]; 25 g/ha)
CCN(C(=O)CCS(C)(=O)=O)c1sc(-c2cccnc2)nc1Cl [Compound 1, N-[4-chloro-2-(pyridin-3-yl)-1,3-thiazol-5-yl]-N-ethyl-3-(methylsulfonyl) propanamide]	does not readily dissolve													
CCN(C(=O)CCS(C)(=O)=O)c1sc(-c2cccnc2)nc1Cl [Polymorph A, N-[4-chloro-2-(pyridin-3-yl)-1,3-thiazol-5-yl]-N-ethyl-3-(methylsulfonyl) propanamide]		more negatively affected than those exposed to the amorphous oil	0.342	significantly affected when compared directly to the amorphous oil	0.080	not a difference in the effect	0.015	unchanged						
CCN(C(=O)CCS(C)(=O)=O)c1sc(-c2cccnc2)nc1Cl [Polymorph B, N-[4-chloro-2-(pyridin-3-yl)-1,3-thiazol-5-yl]-N-ethyl-3-(methylsulfonyl) propanamide]		more negatively affected than those exposed to the amorphous oil	0.345	significantly affected when compared directly to the amorphous oil	0.079	not a difference in the effect	0.013	unchanged	not a difference in the effect	0.502	more affected than insects exposed to the amorphous oil	0.156	no difference in the effect	0.115
CCN(C(=O)CCS(C)(=O)=O)c1sc(-c2cccnc2)nc1Cl [amorphous oil, N-[4-chloro-2-(pyridin-3-yl)-1,3-thiazol-5-yl]-N-ethyl-3-(methylsulfonyl) propanamide, reference compound]			0.601		0.453		0.029			0.295		0.326		0.167
